Results taken from the kinase profiling compilation of Christmann-Franck et al. (2016).

target: IKBKB (human) (UniProt O14920); assay: radiometric filter-binding kinase assay; conditions: compound 100.0 µM; ATP 5 µM
Sequence (O14920 whole entry, looked up): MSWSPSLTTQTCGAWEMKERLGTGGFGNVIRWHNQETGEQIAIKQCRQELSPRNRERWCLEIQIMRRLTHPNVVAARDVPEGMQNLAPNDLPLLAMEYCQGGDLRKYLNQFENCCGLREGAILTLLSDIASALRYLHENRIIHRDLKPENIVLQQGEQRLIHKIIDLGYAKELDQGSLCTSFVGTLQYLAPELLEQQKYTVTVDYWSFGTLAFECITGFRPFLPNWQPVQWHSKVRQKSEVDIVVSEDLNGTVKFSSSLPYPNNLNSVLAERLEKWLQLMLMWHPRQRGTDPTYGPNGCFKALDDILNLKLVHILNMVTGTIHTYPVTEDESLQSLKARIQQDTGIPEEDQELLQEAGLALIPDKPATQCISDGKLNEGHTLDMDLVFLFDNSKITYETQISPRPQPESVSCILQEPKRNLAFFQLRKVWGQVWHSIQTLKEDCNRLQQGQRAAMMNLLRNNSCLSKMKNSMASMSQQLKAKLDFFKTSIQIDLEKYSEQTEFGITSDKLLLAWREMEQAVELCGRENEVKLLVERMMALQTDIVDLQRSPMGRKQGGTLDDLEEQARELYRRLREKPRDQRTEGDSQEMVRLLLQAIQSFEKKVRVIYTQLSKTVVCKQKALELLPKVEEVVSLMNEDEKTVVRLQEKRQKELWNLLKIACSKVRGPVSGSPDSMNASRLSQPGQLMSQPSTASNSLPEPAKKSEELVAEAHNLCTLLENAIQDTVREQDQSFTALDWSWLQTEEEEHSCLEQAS

Going from COc1ccc(-c2cc3c(=O)[nH]cnc3s2)cc1OC to COc1ccc(NC(=S)Nc2cnc3[nH]cnn3c2=O)cn1, the inhibition falls from 29% to 0%.

Going from CC(=O)Nc1nc2cnc(-c3c(C)cccc3C)cn2n1 to O=c1cc(-c2ccccc2F)nc2[nH]ccn12, the inhibition rises from 0% to 15%.

With CC(C)(C)Nc1c(C2CC2)nc2[nH]cnn12 the inhibition was 11%.

target: HIPK2 (human) (UniProt Q9H2X6); assay: radiometric filter-binding kinase assay; conditions: compound 100.0 µM; ATP 5 µM
Sequence (Q9H2X6 whole entry, looked up): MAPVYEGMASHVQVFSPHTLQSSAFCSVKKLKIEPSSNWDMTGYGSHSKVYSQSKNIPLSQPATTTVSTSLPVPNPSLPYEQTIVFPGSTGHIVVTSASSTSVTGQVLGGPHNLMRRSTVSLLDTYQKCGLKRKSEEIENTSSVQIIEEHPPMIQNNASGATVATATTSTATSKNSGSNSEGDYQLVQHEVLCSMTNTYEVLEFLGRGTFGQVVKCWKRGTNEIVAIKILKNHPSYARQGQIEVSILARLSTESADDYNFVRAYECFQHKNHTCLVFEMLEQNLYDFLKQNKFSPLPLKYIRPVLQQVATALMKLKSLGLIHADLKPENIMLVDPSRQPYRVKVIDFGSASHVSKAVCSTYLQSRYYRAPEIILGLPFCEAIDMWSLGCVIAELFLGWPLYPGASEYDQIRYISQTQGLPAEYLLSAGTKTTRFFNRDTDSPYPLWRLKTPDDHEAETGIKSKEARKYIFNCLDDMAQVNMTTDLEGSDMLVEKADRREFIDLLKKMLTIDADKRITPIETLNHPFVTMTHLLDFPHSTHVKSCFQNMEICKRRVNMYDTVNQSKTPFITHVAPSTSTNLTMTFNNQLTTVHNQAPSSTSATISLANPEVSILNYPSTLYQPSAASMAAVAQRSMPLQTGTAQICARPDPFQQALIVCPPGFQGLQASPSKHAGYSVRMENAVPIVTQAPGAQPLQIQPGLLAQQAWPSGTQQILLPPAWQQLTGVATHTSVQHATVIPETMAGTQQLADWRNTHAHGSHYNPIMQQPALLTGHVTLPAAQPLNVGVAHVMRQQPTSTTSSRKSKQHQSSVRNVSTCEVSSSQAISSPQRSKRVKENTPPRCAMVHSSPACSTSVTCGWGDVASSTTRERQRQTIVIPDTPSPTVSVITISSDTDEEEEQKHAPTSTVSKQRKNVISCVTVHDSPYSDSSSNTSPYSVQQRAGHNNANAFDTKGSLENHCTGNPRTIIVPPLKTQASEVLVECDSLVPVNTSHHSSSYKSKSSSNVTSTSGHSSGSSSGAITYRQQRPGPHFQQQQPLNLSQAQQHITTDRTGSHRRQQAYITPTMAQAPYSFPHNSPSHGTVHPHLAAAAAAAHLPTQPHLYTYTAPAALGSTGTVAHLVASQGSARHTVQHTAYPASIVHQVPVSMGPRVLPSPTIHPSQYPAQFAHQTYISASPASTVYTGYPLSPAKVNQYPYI

Compared with COc1ccc(-c2cc3c(=O)[nH]cnc3s2)cc1OC, COc1ccc(NC(=S)Nc2cnc3[nH]cnn3c2=O)cn1 is lower in inhibition: 58% for the first, 1% for the second.

Compared with CC(=O)Nc1nc2cnc(-c3c(C)cccc3C)cn2n1, O=c1cc(-c2ccccc2F)nc2[nH]ccn12 is higher in inhibition: 18% for the first, 61% for the second.

In the case of CC(C)(C)Nc1c(C2CC2)nc2[nH]cnn12, the inhibition is reported as 22%.

target: STK16 (human) (UniProt O75716); assay: radiometric filter-binding kinase assay; conditions: compound 100.0 µM; ATP 50 µM

Compared with COc1ccc(-c2cc3c(=O)[nH]cnc3s2)cc1OC, COc1ccc(NC(=S)Nc2cnc3[nH]cnn3c2=O)cn1 is lower in inhibition: 12% for the first, 3% for the second.

Compared with CC(=O)Nc1nc2cnc(-c3c(C)cccc3C)cn2n1, O=c1cc(-c2ccccc2F)nc2[nH]ccn12 is higher in inhibition: 0% for the first, 15% for the second.

CC(C)(C)Nc1c(C2CC2)nc2[nH]cnn12 showed an inhibition of 0%.

target: PRKAA1 PRKAB2 PRKAG1 (human) (UniProt O43741+Q13131+P54619); assay: radiometric filter-binding kinase assay; conditions: compound 100.0 µM; ATP 20 µM

COc1ccc(-c2cc3c(=O)[nH]cnc3s2)cc1OC and COc1ccc(NC(=S)Nc2cnc3[nH]cnn3c2=O)cn1 are the same in inhibition: 0% for the first, 0% for the second.

CC(=O)Nc1nc2cnc(-c3c(C)cccc3C)cn2n1 and O=c1cc(-c2ccccc2F)nc2[nH]ccn12 are the same in inhibition: 0% for the first, 0% for the second.

With CC(C)(C)Nc1c(C2CC2)nc2[nH]cnn12 the inhibition was 5%.

target: DAPK1 (human) (UniProt P53355); assay: radiometric filter-binding kinase assay; conditions: compound 100.0 µM; ATP 5 µM

Compared with COc1ccc(-c2cc3c(=O)[nH]cnc3s2)cc1OC, COc1ccc(NC(=S)Nc2cnc3[nH]cnn3c2=O)cn1 is higher in inhibition: 0% for the first, 5% for the second.

Compared with CC(=O)Nc1nc2cnc(-c3c(C)cccc3C)cn2n1, O=c1cc(-c2ccccc2F)nc2[nH]ccn12 is higher in inhibition: 0% for the first, 5% for the second.

In the case of CC(C)(C)Nc1c(C2CC2)nc2[nH]cnn12, the inhibition is reported as 0%.

target: MAP3K11 (human) (UniProt Q16584); assay: radiometric filter-binding kinase assay; conditions: compound 100.0 µM; ATP 20 µM
Sequence (Q16584 whole entry, looked up): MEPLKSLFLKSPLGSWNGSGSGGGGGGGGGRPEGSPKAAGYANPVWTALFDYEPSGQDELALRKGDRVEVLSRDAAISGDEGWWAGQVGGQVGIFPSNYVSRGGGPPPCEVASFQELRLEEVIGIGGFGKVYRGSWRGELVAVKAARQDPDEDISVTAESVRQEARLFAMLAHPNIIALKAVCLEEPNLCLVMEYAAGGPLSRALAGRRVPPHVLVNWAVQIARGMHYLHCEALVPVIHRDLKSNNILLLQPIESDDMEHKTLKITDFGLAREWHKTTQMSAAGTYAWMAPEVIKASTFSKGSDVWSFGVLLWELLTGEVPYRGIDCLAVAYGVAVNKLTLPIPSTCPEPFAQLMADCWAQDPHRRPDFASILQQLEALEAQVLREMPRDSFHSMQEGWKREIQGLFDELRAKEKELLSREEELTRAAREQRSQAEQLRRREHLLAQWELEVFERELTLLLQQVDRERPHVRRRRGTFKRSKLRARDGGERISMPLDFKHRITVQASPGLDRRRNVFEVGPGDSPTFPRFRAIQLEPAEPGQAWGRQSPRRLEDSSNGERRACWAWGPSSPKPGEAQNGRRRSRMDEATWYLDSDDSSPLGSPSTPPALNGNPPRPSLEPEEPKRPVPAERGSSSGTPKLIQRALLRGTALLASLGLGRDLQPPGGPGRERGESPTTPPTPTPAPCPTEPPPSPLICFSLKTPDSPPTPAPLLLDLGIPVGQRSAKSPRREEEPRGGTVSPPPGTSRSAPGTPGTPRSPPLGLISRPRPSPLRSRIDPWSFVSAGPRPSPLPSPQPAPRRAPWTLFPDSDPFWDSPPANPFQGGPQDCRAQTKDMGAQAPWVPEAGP

Going from COc1ccc(-c2cc3c(=O)[nH]cnc3s2)cc1OC to COc1ccc(NC(=S)Nc2cnc3[nH]cnn3c2=O)cn1, the inhibition falls from 8% to 0%.

First: CC(=O)Nc1nc2cnc(-c3c(C)cccc3C)cn2n1
Second: O=c1cc(-c2ccccc2F)nc2[nH]ccn12
The inhibition of the first is lower: 0% for the first, 7% for the second.

CC(C)(C)Nc1c(C2CC2)nc2[nH]cnn12 showed an inhibition of 0%.

target: INSR (human) (UniProt P06213); assay: radiometric filter-binding kinase assay; conditions: compound 100.0 µM; ATP 20 µM

COc1ccc(-c2cc3c(=O)[nH]cnc3s2)cc1OC and COc1ccc(NC(=S)Nc2cnc3[nH]cnn3c2=O)cn1 are the same in inhibition: 0% for the first, 0% for the second.

Compared with CC(=O)Nc1nc2cnc(-c3c(C)cccc3C)cn2n1, O=c1cc(-c2ccccc2F)nc2[nH]ccn12 is higher in inhibition: 0% for the first, 6% for the second.

CC(C)(C)Nc1c(C2CC2)nc2[nH]cnn12 showed an inhibition of 0%.

test system: AKT2 (human), P31751 [S474D]; assay: radiometric filter-binding kinase assay; conditions: compound 100.0 µM; ATP 50 µM
Sequence (P31751 whole entry S474D, looked up): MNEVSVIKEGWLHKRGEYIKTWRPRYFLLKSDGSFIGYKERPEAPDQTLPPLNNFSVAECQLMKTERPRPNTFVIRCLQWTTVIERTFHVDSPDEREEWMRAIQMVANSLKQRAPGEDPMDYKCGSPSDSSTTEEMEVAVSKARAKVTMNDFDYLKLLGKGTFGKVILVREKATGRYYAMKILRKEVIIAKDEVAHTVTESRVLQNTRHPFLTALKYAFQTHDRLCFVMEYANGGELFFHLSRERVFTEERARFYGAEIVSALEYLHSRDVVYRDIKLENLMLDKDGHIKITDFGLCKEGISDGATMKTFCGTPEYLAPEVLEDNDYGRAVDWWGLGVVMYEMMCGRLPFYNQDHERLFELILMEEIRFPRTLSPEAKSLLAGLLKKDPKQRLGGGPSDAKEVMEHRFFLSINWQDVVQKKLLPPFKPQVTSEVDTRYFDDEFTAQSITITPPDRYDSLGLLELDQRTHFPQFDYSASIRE

Compared with COc1ccc(-c2cc3c(=O)[nH]cnc3s2)cc1OC, COc1ccc(NC(=S)Nc2cnc3[nH]cnn3c2=O)cn1 is lower in inhibition: 47% for the first, 41% for the second.

Going from CC(=O)Nc1nc2cnc(-c3c(C)cccc3C)cn2n1 to O=c1cc(-c2ccccc2F)nc2[nH]ccn12, the inhibition falls from 43% to 16%.

CC(C)(C)Nc1c(C2CC2)nc2[nH]cnn12 was tested, and the inhibition was 31%.

target: CHEK1 (human) (UniProt O14757); assay: radiometric filter-binding kinase assay; conditions: compound 100.0 µM; ATP 20 µM
Sequence (O14757 whole entry, looked up): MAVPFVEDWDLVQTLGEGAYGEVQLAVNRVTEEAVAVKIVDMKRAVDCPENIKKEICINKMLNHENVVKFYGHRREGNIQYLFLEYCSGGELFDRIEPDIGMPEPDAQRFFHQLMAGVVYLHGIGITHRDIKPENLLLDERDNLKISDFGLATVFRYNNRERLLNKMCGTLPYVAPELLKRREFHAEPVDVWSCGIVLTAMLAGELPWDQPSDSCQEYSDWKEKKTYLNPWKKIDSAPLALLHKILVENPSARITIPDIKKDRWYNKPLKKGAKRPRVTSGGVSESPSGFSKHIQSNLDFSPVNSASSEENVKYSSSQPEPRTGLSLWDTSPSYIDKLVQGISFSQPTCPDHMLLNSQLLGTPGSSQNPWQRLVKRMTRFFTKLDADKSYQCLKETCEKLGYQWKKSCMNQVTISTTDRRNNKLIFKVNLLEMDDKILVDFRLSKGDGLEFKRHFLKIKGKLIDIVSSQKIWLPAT

COc1ccc(-c2cc3c(=O)[nH]cnc3s2)cc1OC and COc1ccc(NC(=S)Nc2cnc3[nH]cnn3c2=O)cn1 are the same in inhibition: 0% for the first, 0% for the second.

Going from CC(=O)Nc1nc2cnc(-c3c(C)cccc3C)cn2n1 to O=c1cc(-c2ccccc2F)nc2[nH]ccn12, the inhibition rises from 0% to 4%.

With CC(C)(C)Nc1c(C2CC2)nc2[nH]cnn12 the inhibition was 0%.

target: FLT1 (human) (UniProt P17948); assay: radiometric filter-binding kinase assay; conditions: compound 100.0 µM; ATP 20 µM
Sequence (P17948 whole entry, looked up): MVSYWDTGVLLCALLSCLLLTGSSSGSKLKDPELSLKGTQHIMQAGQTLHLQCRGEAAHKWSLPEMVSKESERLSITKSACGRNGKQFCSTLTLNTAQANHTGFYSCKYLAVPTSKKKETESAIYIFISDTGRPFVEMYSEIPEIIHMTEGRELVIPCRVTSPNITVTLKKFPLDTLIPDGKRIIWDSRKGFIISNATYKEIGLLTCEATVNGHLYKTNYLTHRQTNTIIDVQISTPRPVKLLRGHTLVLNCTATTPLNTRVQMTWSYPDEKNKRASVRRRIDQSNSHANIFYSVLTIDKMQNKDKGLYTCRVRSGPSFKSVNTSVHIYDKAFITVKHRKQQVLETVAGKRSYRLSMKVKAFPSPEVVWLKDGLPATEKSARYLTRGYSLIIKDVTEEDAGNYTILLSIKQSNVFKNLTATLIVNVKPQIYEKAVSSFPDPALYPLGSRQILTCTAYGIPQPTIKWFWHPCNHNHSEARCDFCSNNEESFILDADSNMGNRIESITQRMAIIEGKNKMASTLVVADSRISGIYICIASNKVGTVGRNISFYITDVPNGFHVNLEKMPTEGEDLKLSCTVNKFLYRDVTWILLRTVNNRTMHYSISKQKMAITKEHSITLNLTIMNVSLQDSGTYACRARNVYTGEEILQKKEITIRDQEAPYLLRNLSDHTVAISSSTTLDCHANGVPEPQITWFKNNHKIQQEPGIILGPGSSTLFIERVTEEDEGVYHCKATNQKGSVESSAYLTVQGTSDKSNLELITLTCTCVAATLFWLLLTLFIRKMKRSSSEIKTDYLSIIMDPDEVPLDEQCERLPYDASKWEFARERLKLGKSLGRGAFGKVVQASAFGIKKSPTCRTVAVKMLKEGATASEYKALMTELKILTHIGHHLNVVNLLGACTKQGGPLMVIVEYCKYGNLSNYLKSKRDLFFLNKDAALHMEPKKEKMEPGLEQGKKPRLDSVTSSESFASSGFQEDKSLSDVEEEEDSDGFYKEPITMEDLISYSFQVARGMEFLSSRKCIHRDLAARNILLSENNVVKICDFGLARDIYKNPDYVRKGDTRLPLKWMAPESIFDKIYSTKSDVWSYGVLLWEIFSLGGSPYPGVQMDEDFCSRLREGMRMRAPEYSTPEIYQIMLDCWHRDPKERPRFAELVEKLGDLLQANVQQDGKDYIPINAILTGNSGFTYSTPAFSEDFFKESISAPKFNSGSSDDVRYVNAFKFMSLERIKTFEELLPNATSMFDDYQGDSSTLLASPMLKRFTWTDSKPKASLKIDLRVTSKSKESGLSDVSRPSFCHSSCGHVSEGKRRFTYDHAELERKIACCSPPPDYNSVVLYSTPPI

Going from COc1ccc(-c2cc3c(=O)[nH]cnc3s2)cc1OC to COc1ccc(NC(=S)Nc2cnc3[nH]cnn3c2=O)cn1, the inhibition falls from 39% to 38%.

For CC(=O)Nc1nc2cnc(-c3c(C)cccc3C)cn2n1, the inhibition was 9%.
